Test [1] deals with human acute myeloid leukemia cell strain MOLM-14 (expressing FLT3/ITD mutant gene and wild-type FLT3 gene). As to the kind of experiment: Effects on proliferation of tumor cells (Cell Titer-Glo), MOLM-14. Type of test: cell-based. The note with it: MOLM-14, incubated for 72 hours. From the text:
(§1) This example tested the effects of the compounds of the present invention (the compound shown in Formula (I), hydrochloride salt, phosphate, mesylate, lactate, acetate, sulphate, and hydrobromide thereof prepared in EXAMPLES 1-8 respectively) on proliferation of tumor cells, and further evaluated the inhibitory effects of the compounds on proliferation of tumor cells and selectivity of the compounds in inhibiting proliferation of tumor cells.
(3) human acute myeloid leukemia cell strain MOLM-14 (expressing FLT3/ITD mutant gene and wild-type FLT3 gene);
(§2) The compounds at different concentration (0.000508 μM, 0.00152 μM, 0.00457 μM, 0.0137 μM, 0.0411 μM, 0.123 μM, 0.370 μM, 1.11 μM, 3.33 μM, 10 μM in DMSO) were added to the above-mentioned cells respectively, incubated for 72 hours, Cell Titer-Glo (Promega, United States of America) Chemiluminescence Kit was used to quantify ATP in living cells to detect the number of living cells, the results were shown as Table 3
For orientation: ATP-based viability assays read luminescence as a measure of living cells.

The subject of test [2] is mouse BaF3-FLT3-ITD-D835Y (stably expressing FLT3/ITD D835Y mutant activated kinase). As to the kind of experiment: Effects on proliferation of cells (Cell Titer-Glo), BaF3-FLT3-ITD-D835Y. Type of test: cell-based. The note with it: incubated for 72 hours.
Excerpt: as §1
(9) mouse BaF3-FLT3-ITD-D835Y (stably expressing FLT3/ITD D835Y mutant activated kinase);
as §2

The subject of test [3] is mouse BaF3-FLT3-ITD-F691L (stably expressing FLT3/ITD F691L mutant activated kinase). Put plainly: Effects on proliferation of cells (Cell Titer-Glo), BaF3-FLT3-ITD-F691L. The note with it: incubated for 72 hours. The class given is cell-based.
Excerpt: as §1
(10) mouse BaF3-FLT3-ITD-F691L (stably expressing FLT3/ITD F691L mutant activated kinase).
as §2

The subject of test [4] is subcutaneous xenograft tumor of human MV-4-11. Put plainly: Therapeutic effects on subcutaneous xenograft tumor of human MV-4-11 in nude mice. The note with it: MV-4-11 subcutaneous xenograft, 15 mg/kg intraperitoneal injection, 3 times a day for 21 days. The class given is in vivo, BALB/cA-nude mice. Here is the method: Preparation of test samples: all samples were prepared with 5% anhydrous ethanol, 5% Cremophor EL and 90% physiological saline.
Animals: BALB/cA-nude mice, 6-7 weeks, female ♀ purchased from Shanghai Lingchang Biotechnology Co., Ltd. Production license number was SC×K(Hu)2013-0018; animal certification number was 2013001810589.
Feeding environment: SPF Level.
Experiment steps: human acute myeloid leukemia cells MV-4-11 were inoculated subcutaneously in nude mice, after the tumor grows to 80-150 mm^3, animals were randomly divided into groups with 6 mice each group. The dosage was 15 mg/kg, the drugs were administrated by intraperitoneal injection, 3 times a day for 21 days. The volume of tumor was measured, the weight of mouse was weighed and the data were recorded.
The formula for calculating the volume of tumor (V) was: […]
Wherein a and b represented length and width respectively.
T/C (%)=(T−T0)/(C−C0)×100
Wherein T and C were the volume of tumor when the experiment was completed; T0 and C0 were the volume of tumor when the experiment was started.
The inhibited rate of tumor was calculated, the results were shown as Table 4.
(In general: A xenograft is tissue or cells of one species grown in another, often human tumour cells in immunodeficient mice.)

The test system of test [5] is human acute monocytic leukemia cell strain MV4-11 (expressing FLT3/ITD mutant gene). Put plainly: Effects on proliferation of tumor cells (Cell Titer-Glo), MV4-11. The class given is cell-based. The note with it: MV4-11, incubated for 72 hours.
Excerpt: as §1
(1) human acute monocytic leukemia cell strain MV4-11 (expressing FLT3/ITD mutant gene);
as §2

In test [6] the test system is mouse TEL-BaF3-FLT3/ITD (stably expressing FLT3/ITD mutant activated kinase). As to the kind of experiment: Effects on proliferation of cells (Cell Titer-Glo), TEL-BaF3-FLT3/ITD. The class given is cell-based. The note with it: incubated for 72 hours.
Excerpt: as §1
(6) mouse TEL-BaF3-FLT3/ITD (stably expressing FLT3/ITD mutant activated kinase);
as §2

Turning to `CC(=O)O.Nc1sc(-c2c(F)cccc2F)nc1C(=O)Nc1cncnc1OCC1CCNCC1` [Acetate of compound of Formula (I)], the IC50 – broadly, the concentration at which inhibition is half-maximal – is 0.12 µM in test [1]; 0.53 µM in test [2]; 0.94 µM in test [3]; 0.41 µM in test [5]; 0.02 µM in test [6]. Besides, the “Inhibited Rate of Tumor (%)” value in test [4] is recorded as 77%.
For `Nc1sc(-c2c(F)cccc2F)nc1C(=O)Nc1cncnc1OCC1CCNCC1` [Compound of Formula (I), 5-amino-2-(2,6-difluorophenyl)-N-(4-(piperidine-4-methoxy)pyrimidine-5-) thiazole-4-formamide], the IC50 in test [1] (Homo sapiens) turned out to be 0.27 µM; in test [2] (Mus musculus), 0.61 µM; in test [3] (Mus musculus), 0.93 µM; in test [5] (Homo sapiens) it was 0.51 µM; in test [6] (Mus musculus), 0.11 µM. Besides, the “Inhibited Rate of Tumor (%)” value in test [4] was 66%.
Regarding `Br.Nc1sc(-c2c(F)cccc2F)nc1C(=O)Nc1cncnc1OCC1CCNCC1` [Hydrobromide of compound of Formula (I)], the half-inhibitory concentration (IC50) is 0.13 µM in test [1]; 0.66 µM in test [2]; 0.76 µM in test [3]; 0.42 µM in test [5]; 0.02 µM in test [6]. Also, in test [4], the “Inhibited Rate of Tumor (%)” value is listed as 66%.
For `Cl.Nc1sc(-c2c(F)cccc2F)nc1C(=O)Nc1cncnc1OCC1CCNCC1` [Hydrochloride salt of compound of Formula (I)], the IC50 amounted to 0.08 µM in test [1]; 0.32 µM in test [2]; 0.45 µM in test [3]; 0.13 µM in test [5]; 0.02 µM in test [6]. In addition, in test [4], the “Inhibited Rate of Tumor (%)” value is recorded as 86%.
On to `CC(O)C(=O)O.Nc1sc(-c2c(F)cccc2F)nc1C(=O)Nc1cncnc1OCC1CCNCC1` [Lactate of compound of Formula (I)], for which the IC50 in test [1] worked out at 0.31 µM; in test [2], 0.34 µM; in test [3], 0.64 µM; in test [5], 0.34 µM; in test [6] it was 0.04 µM. The “Inhibited Rate of Tumor (%)” value in test [4] is on record as 71%.
Consider `CS(=O)(=O)O.Nc1sc(-c2c(F)cccc2F)nc1C(=O)Nc1cncnc1OCC1CCNCC1` [Mesylate of compound of Formula (I)], for which the half-maximal inhibitory concentration (IC50) in test [1] came to 0.13 µM; in test [2] it was 0.55 µM; in test [3] it was 0.77 µM; in test [5], 0.43 µM; in test [6] it was 0.02 µM. In test [4], the “Inhibited Rate of Tumor (%)” value came out at 74%.
In the case of `Nc1sc(-c2c(F)cccc2F)nc1C(=O)Nc1cncnc1OCC1CCNCC1.O=S(=O)(O)O` [Sulphate of compound of Formula (I)], the half-maximal inhibitory concentration (IC50) in test [1] amounted to 0.22 µM; in test [2], 0.23 µM; in test [3], 0.56 µM; in test [5], 0.23 µM; in test [6], 0.04 µM. In addition, the “Inhibited Rate of Tumor (%)” value in test [4] was 68%.

The record behind these values is patent publication US20190255048A1, “PYRIMIDINE COMPOUND OR SALT THEREOF IN APPLICATION FOR MANUFACTURING PHARMACEUTICAL PRODUCT FOR PREVENTING AND/OR TREATING FLT3-RELATED DISEASE OR DISORDER” (SHENZHEN HAIBIN PHARMACEUTICAL CO., LTD, priority 2016, published 2019).
